Where two headings read alike, the source gives them in different places. Numbered stars: 1 amine (or outer) side, 2 acyl side, 3 side chain; on linkers, the order of the positions; unused ones are H or OH. Square brackets hold non-standard residues; d marks the D form. Side chains are listed from the residue outwards. Peptide text beside a SMILES is read from it. * marks the point of attachment. γGlu = O=C(O)[C@H](CCC(=O)[*:2])N[*:1]; Palmitoyl = CCCCCCCCCCCCCCCC(=O)*; αMeF = C[C@](N)(Cc1ccccc1)C(=O)O; αMeK = C[C@](N)(CCCCN)C(=O)O; αMeS = C[C@](N)(CO)C(=O)O; Aib = CC(C)(N)C(=O)O

Holding throughout (type): cell-based
Experiment [1] has as its target T1, human GLP-1 receptor (GLP-1R) (Homo sapiens, UniProt P43220).
T1 construct: expressed in transfected cells
Kind of experiment: cAMP assay, human GLP-1R cells. The procedure, abridged:
(§1)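 Peptide-stimulated cAMP measured by two-step HTRF after a 30 min room-temperature incubation with receptor-expressing cells (hGLP-1R, hGIPR at 1×10^5 cells/ml; hGCGR at 2×10^5 cells/ml). Duplicate dilutions; EC50 from 4-parameter logistic fit of % Delta F.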
(In general: cAMP levels reflect the balance of adenylyl cyclase and phosphodiesterase activity.)

In experiment [2] the target is T2, human glucagon receptor (GCGR) (Homo sapiens, UniProt P47871).
T2 construct: expressed in transfected cells
Kind of experiment: cAMP assay, human GCGR cells. The following applies: cAMP assay. The procedure, abridged:
as §1

Experiment [3] has as its target T3, human glucose-dependent insulinotropic peptide receptor (GIPR) (Homo sapiens, UniProt P48546).
T3 construct: expressed in transfected cells
T3 sequence (P48546 22-466): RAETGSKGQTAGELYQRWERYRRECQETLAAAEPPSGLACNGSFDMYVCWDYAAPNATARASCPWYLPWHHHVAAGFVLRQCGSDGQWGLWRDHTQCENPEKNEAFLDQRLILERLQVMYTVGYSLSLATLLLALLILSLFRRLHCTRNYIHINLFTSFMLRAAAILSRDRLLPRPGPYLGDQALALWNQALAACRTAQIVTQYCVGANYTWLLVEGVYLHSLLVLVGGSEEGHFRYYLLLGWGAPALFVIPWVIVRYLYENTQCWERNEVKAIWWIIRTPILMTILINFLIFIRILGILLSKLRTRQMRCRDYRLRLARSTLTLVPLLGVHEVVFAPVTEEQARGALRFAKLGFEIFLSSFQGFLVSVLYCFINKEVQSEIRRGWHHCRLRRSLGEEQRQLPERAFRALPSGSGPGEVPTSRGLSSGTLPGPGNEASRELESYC
Kind of experiment: cAMP assay, human GIPR cells. The following applies: cAMP assay. The procedure, abridged:
as §1

Setting [4] is: cAMP assay, first determination (n1), read-out: Primary assay EC50 GLP-1R n1.
The mark [5] stands for this setting: cAMP assay, second determination (n2), read-out: Primary assay EC50 GLP-1R n2.
[6] abbreviates: mean of n1 and n2, read-out: Mean pM GLP-1R.
Where [7] appears, read: first determination (n1), read-out: Primary assay EC50 Gluc-R (n1).
[8] abbreviates: second determination (n2), read-out: Primary assay EC50 Gluc-R (n2).
Setting [9] is: first determination (n1), read-out: Primary assay EC50 GIP-R (n1).
The mark [10] stands for this setting: second determination (n2), read-out: Primary assay EC50 GIP-R (n2).

T2 sequence (P47871 26-477): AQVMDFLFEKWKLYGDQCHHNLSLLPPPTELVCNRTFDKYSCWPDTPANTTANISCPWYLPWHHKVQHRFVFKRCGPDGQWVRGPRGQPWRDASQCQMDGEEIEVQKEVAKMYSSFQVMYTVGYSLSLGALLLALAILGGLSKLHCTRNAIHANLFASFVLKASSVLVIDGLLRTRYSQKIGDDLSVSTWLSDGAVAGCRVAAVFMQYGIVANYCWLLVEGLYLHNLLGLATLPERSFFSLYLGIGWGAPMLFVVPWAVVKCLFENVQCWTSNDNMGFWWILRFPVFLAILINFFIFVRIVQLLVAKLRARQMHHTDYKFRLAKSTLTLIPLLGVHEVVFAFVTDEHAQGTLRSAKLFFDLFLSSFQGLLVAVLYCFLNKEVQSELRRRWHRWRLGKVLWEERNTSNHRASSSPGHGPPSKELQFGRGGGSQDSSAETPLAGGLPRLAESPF
T1 sequence (P43220 24-463): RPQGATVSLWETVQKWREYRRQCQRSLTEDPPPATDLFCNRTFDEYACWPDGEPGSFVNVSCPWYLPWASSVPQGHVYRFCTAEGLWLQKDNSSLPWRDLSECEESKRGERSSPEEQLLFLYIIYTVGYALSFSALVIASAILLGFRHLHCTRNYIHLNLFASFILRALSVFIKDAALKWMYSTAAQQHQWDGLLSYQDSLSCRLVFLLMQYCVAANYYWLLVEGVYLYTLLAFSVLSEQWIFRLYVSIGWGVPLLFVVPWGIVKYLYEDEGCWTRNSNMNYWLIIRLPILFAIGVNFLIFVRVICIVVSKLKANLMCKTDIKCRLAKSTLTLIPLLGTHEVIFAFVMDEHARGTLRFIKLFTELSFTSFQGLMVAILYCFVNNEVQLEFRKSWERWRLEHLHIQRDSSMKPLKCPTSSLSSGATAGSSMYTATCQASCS

Take `CC[C@H](C)[C@H](NC(=O)[C@](C)(Cc1ccccc1)NC(=O)[C@H](CCC(=O)O)NC(=O)[C@](C)(CCCCN)NC(=O)[C@H](C)NC(=O)[C@H](C)NC(=O)[C@H](CCC(=O)O)NC(=O)CNC(=O)[C@H](CCC(=O)O)NC(=O)[C@H](CC(C)C)NC(=O)[C@](C)(Cc1ccccc1)NC(=O)[C@H](CO)NC(=O)[C@](C)(CO)NC(=O)[C@@H](NC(=O)[C@H](CC(=O)O)NC(=O)[C@H](C)NC(=O)[C@@H](NC(=O)[C@](C)(Cc1ccccc1)NC(=O)[C@H](CO)NC(=O)CNC(=O)[C@H](CCC(=O)O)NC(=O)C(C)(C)NC(=O)[C@@H](N)Cc1c[nH]cn1)[C@@H](C)O)C(C)C)C(=O)N[C@@H](C)C(=O)N[C@@](C)(Cc1ccccc1)C(=O)N[C@H](C(=O)N[C@H](C(=O)N[C@@](C)(CCCCN)C(=O)NCC(=O)NCC(N)=O)C(C)C)C(C)C` [compound 26] (H-H[Aib]EGS[αMeF]TADV[αMeS]S[αMeF]LEGEAA[αMeK]E[αMeF]IA[αMeF]VV[αMeK]GG-NH2): the EC50 in experiment [1] (setting [4]) is 99 pM; in experiment [1] (setting [5]) it was 150 pM; in experiment [1] (setting [6]), 123 pM; in experiment [2] (setting [7]) it was no less than 100 nM; in experiment [2] (setting [8]) it was 30 nM; in experiment [3] (setting [9]) it was no less than 100 nM. Further, in experiment [3] (setting [10]), the EC50 is no less than 100 nM.

Regarding `CC[C@H](C)[C@H](NC(=O)[C@](C)(Cc1ccccc1)NC(=O)[C@H](CCC(=O)O)NC(=O)[C@](C)(CCCCN)NC(=O)[C@H](C)NC(=O)[C@H](C)NC(=O)[C@H](CCC(=O)O)NC(=O)CNC(=O)[C@H](CCC(=O)O)NC(=O)[C@H](CC(C)C)NC(=O)[C@](C)(Cc1ccccc1)NC(=O)[C@H](CO)NC(=O)[C@](C)(CO)NC(=O)[C@@H](NC(=O)[C@H](CC(=O)O)NC(=O)[C@H](CC(=O)O)NC(=O)[C@@H](NC(=O)[C@](C)(Cc1ccccc1)NC(=O)[C@H](CO)NC(=O)CNC(=O)[C@H](CCC(=O)O)NC(=O)C(C)(C)NC(=O)[C@@H](N)Cc1c[nH]cn1)[C@@H](C)O)C(C)C)C(=O)N[C@@H](C)C(=O)N[C@@](C)(Cc1ccccc1)C(=O)N[C@H](C(=O)N[C@H](C(=O)N[C@@](C)(CCCCN)C(=O)NCC(=O)NCC(N)=O)C(C)C)C(C)C` [compound 27] (H-H[Aib]EGS[αMeF]TDDV[αMeS]S[αMeF]LEGEAA[αMeK]E[αMeF]IA[αMeF]VV[αMeK]GG-NH2; N-terminus assumed), the EC50 is 420 pM in experiment [1] (setting [4]); 480 pM in experiment [1] (setting [5]); 446 pM in experiment [1] (setting [6]); no less than 100 nM in experiment [2] (setting [7]); 40 nM in experiment [2] (setting [8]); no less than 100 nM in experiment [3] (setting [9]). Further, the EC50 in experiment [3] (setting [10]) was no less than 100 nM.

As for `CC[C@H](C)[C@H](NC(=O)[C@](C)(Cc1ccccc1)NC(=O)[C@H](CCC(=O)O)NC(=O)[C@](C)(CCCCN)NC(=O)[C@H](C)NC(=O)[C@H](C)NC(=O)[C@H](CCC(=O)O)NC(=O)CNC(=O)[C@H](CCC(=O)O)NC(=O)[C@H](CC(C)C)NC(=O)[C@](C)(Cc1ccccc1)NC(=O)[C@H](CO)NC(=O)[C@](C)(CO)NC(=O)[C@@H](NC(=O)[C@H](CC(=O)O)NC(=O)[C@@H](NC(=O)[C@@H](NC(=O)[C@](C)(Cc1ccccc1)NC(=O)[C@H](CO)NC(=O)CNC(=O)[C@H](CCC(=O)O)NC(=O)C(C)(C)NC(=O)[C@@H](N)Cc1c[nH]cn1)[C@@H](C)O)C(C)C)C(C)C)C(=O)N[C@@H](C)C(=O)N[C@@](C)(Cc1ccccc1)C(=O)N[C@H](C(=O)N[C@H](C(=O)N[C@@](C)(CCCCN)C(=O)NCC(=O)NCC(N)=O)C(C)C)C(C)C` [compound 30] (H-H[Aib]EGS[αMeF]TVDV[αMeS]S[αMeF]LEGEAA[αMeK]E[αMeF]IA[αMeF]VV[αMeK]GG-NH2; N-terminus assumed), the EC50 in experiment [1] (setting [4]) is 80000 pM; in experiment [1] (setting [5]), 97000 pM; in experiment [1] (setting [6]), 88600 pM; in experiment [2] (setting [7]) it was no less than 100 nM; in experiment [2] (setting [8]), no less than 100 nM; in experiment [3] (setting [9]), no less than 100 nM. Also, the EC50 in experiment [3] (setting [10]) was no less than 100 nM.

Turning to `CCCCCCCCCCCCCCCC(=O)N[C@@H](CCC(=O)NCCCC[C@H](NC(=O)CNC(=O)CNC(=O)[C@](C)(CCCCN)NC(=O)[C@@H](NC(=O)[C@@H](NC(=O)[C@](C)(Cc1ccccc1)NC(=O)[C@H](C)NC(=O)[C@@H](NC(=O)[C@](C)(Cc1ccccc1)NC(=O)[C@H](CCC(=O)O)NC(=O)[C@](C)(CCCCN)NC(=O)[C@H](C)NC(=O)[C@H](C)NC(=O)[C@H](CCC(=O)O)NC(=O)CNC(=O)[C@H](CCC(=O)O)NC(=O)[C@H](CC(C)C)NC(=O)[C@](C)(Cc1ccccc1)NC(=O)[C@H](CO)NC(=O)[C@](C)(CO)NC(=O)[C@@H](NC(=O)[C@H](CC(=O)O)NC(=O)[C@H](CO)NC(=O)[C@@H](NC(=O)[C@](C)(Cc1ccccc1)NC(=O)[C@H](CO)NC(=O)CNC(=O)[C@H](CCC(=O)O)NC(=O)C(C)(C)NC(=O)[C@@H](N)Cc1c[nH]cn1)[C@@H](C)O)C(C)C)[C@@H](C)CC)C(C)C)C(C)C)C(N)=O)C(=O)O` [compound 32] (H-H[Aib]EGS[αMeF]TSDV[αMeS]S[αMeF]LEGEAA[αMeK]E[αMeF]IA[αMeF]VV[αMeK]GGK([γGlu-Palmitoyl])-NH2), the EC50 in experiment [1] (setting [4]) was 36 pM; in experiment [1] (setting [5]), 18 pM; in experiment [1] (setting [6]), 27 pM; in experiment [2] (setting [7]), no less than 90 nM; in experiment [2] (setting [8]), no less than 90 nM; in experiment [3] (setting [9]) it was no less than 90 nM. Further, in experiment [3] (setting [10]), the EC50 was no less than 90 nM.

For the molecule `CCCCCCCCCCCCCCCC(=O)N[C@@H](CCC(=O)NCCCC[C@H](NC(=O)[C@H](C)NC(=O)[C@H](C)NC(=O)[C@H](CCC(=O)O)NC(=O)CNC(=O)[C@H](CCC(=O)O)NC(=O)[C@H](CC(C)C)NC(=O)[C@](C)(Cc1ccccc1)NC(=O)[C@H](CO)NC(=O)[C@](C)(CO)NC(=O)[C@@H](NC(=O)[C@H](CC(=O)O)NC(=O)[C@H](CO)NC(=O)[C@@H](NC(=O)[C@](C)(Cc1ccccc1)NC(=O)[C@H](CO)NC(=O)CNC(=O)[C@H](CCC(=O)O)NC(=O)C(C)(C)NC(=O)[C@@H](N)Cc1c[nH]cn1)[C@@H](C)O)C(C)C)C(=O)N[C@@H](CCC(=O)O)C(=O)N[C@@](C)(Cc1ccccc1)C(=O)N[C@H](C(=O)N[C@@H](C)C(=O)N[C@@](C)(Cc1ccccc1)C(=O)N[C@H](C(=O)N[C@H](C(=O)N[C@@](C)(CCCCN)C(=O)NCC(=O)NCC(N)=O)C(C)C)C(C)C)[C@@H](C)CC)C(=O)O` [compound 34], the EC50 in experiment [1] (setting [4]) was 39 pM; in experiment [1] (setting [5]), 48 pM; in experiment [1] (setting [6]), 43 pM; in experiment [2] (setting [7]) it was no less than 93 nM; in experiment [2] (setting [8]), no less than 93 nM; in experiment [3] (setting [9]) it was no less than 93 nM. For the same molecule, the EC50 in experiment [3] (setting [10]) was no less than 93 nM.

With `CCCCCCCCCCCCCCCC(=O)N[C@@H](CCC(=O)NCCCC[C@H](NC(=O)CNC(=O)CNC(=O)[C@](C)(CCCCN)NC(=O)[C@@H](NC(=O)[C@@H](NC(=O)[C@](C)(Cc1ccccc1)NC(=O)[C@H](C)NC(=O)[C@@H](NC(=O)[C@](C)(Cc1ccccc1)NC(=O)[C@H](CCC(=O)O)NC(=O)[C@](C)(CCCCN)NC(=O)[C@H](C)NC(=O)[C@H](C)NC(=O)[C@H](CCC(=O)O)NC(=O)CNC(=O)[C@H](CCC(=O)O)NC(=O)[C@H](CC(C)C)NC(=O)[C@](C)(Cc1ccccc1)NC(=O)[C@H](CO)NC(=O)[C@](C)(CO)NC(=O)[C@@H](NC(=O)[C@H](CC(=O)O)NC(=O)[C@H](CC(=O)O)NC(=O)[C@@H](NC(=O)[C@](C)(Cc1ccccc1)NC(=O)[C@H](CO)NC(=O)CNC(=O)[C@H](CCC(=O)O)NC(=O)C(C)(C)NC(=O)[C@@H](N)Cc1c[nH]cn1)[C@@H](C)O)C(C)C)[C@@H](C)CC)C(C)C)C(C)C)C(N)=O)C(=O)O` [compound 35] (H-H[Aib]EGS[αMeF]TDDV[αMeS]S[αMeF]LEGEAA[αMeK]E[αMeF]IA[αMeF]VV[αMeK]GGK([γGlu-Palmitoyl])-NH2; N-terminus assumed), the EC50 was 4900 pM in experiment [1] (setting [4]); 1700 pM in experiment [1] (setting [5]); 3260 pM in experiment [1] (setting [6]); no less than 89 nM in experiment [2] (setting [7]); no less than 27 nM in experiment [2] (setting [8]); no less than 89 nM in experiment [3] (setting [9]). For the same molecule, in experiment [3] (setting [10]), the EC50 is no less than 27 nM.

Source of the values: patent US10414811B2, “Protease-resistant lipidated GLP-1 analogs” (MEDIMMUNE LIMITED, priority 2015, dated 2019).
